The text below walks through data of ChEMBL document CHEMBL1141935, “Aminopiperidine indazoles as orally efficacious melanin concentrating hormone receptor-1 antagonists” (Bioorg Med Chem Lett, 2005).

The target in data set [1] is T1, Melanin-concentrating hormone receptor 1 (Homo sapiens, UniProt Q99705). Put plainly: Functional antagonism of MCH-mediated calcium release by FLIPR using human MCHr1 from neuronal IMR32 cells. It is filed as cell-based, IMR-32.
The target of data set [2] is T1, Melanin-concentrating hormone receptor 1. The data set can be described thus: Binding affinity to human MCHr1 from neuronal IMR32 cells. It is filed as cell-based, IMR-32.
Data set [3] is described as follows: Half life in DIO mice plasma at 10 mg/kg, po. It is filed as ADME, organism-based. Also on record: dose 10 mg/kg, route oral. Conditions: mouse.
The nature of data set [4]: Half life in DIO mice brain at 10 mg/kg, po. It is filed as ADME, organism-based. Also on record: dose 10 mg/kg, route oral. Conditions: mouse.
Data set [5] in a line: AUC in DIO mice brain at 10 mg/kg, po. It is filed as ADME, organism-based. Also on record: dose 10 mg/kg, route oral. To be noted: mouse.
A short description of data set [6]: Cmax in DIO mice brain at 10 mg/kg, po. It is filed as ADME, organism-based. Also on record: dose 10 mg/kg, route oral. Conditions: mouse.
A short description of data set [7]: Cmax in DIO mice plasma at 10 mg/kg, po. It is filed as ADME, organism-based. Set-up: dose 10 mg/kg, route oral. Conditions: mouse.
Data set [8] in a line: AUC in DIO mice plasma at 10 mg/kg, po. Conditions: mouse. Set-up: dose 10 mg/kg, route oral. It is filed as ADME, organism-based.

The structures appear in SMILES notation. Bounds are passed on as bounds.

T1 sequence (Q99705 whole entry): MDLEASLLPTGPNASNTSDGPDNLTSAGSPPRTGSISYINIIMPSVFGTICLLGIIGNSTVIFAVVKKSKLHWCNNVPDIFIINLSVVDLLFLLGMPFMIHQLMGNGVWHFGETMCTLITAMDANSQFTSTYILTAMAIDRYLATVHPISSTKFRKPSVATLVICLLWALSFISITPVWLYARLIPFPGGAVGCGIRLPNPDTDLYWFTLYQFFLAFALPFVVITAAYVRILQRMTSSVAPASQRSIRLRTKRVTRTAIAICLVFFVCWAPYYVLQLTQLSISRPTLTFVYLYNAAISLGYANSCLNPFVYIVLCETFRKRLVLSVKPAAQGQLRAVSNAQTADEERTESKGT

Broadly, the IC50 is the concentration at which inhibition is half-maximal. Regarding `Cc1ccc2[nH]nc(NC3CCN(Cc4ccc5c(c4)OCO5)CC3)c2c1`, the values for the 50% inhibitory concentration (IC50) in data set [1] and in data set [2] were 1060 nM and 110 nM, respectively.
In general, half-life refers to the time needed for the level to fall by half in the phase considered. A higher half-life goes with slow loss. Broadly, the AUC is concentration integrated over time. By Cmax is commonly meant the peak of the concentration-time curve. For `O=[N+]([O-])c1ccc2[nH]nc(NC3CCN(Cc4ccc5c(c4)OCO5)CC3)c2c1`, the half-life in data set [3] was 3.3 h; in data set [4], 4 h. In addition, the exposure (AUC) in data set [5] was determined as 22800 ng·h/mL; in data set [8], 14400 ng·h/mL. For the same molecule, the IC50 turned out to be 70 nM in data set [1] and 6 nM in data set [2]. Further, the Cmax was determined as 3080 ng/mL in data set [6] and 1520 ng/mL in data set [7].
`c1ccc2c(NC3CCN(Cc4ccc5c(c4)OCO5)CC3)[nH]nc2c1`: the results for the IC50 in data set [1] and in data set [2] were greater than 10000 nM and 440 nM, respectively.
On the same counts, the results for `COc1ccc(CN2CCC(Nc3[nH]nc4ccc(Cl)cc34)CC2)c(F)c1` are 5200 nM and 240 nM.
In the same order, the values of `N#Cc1ccc2[nH]nc(NC3CCN(Cc4ccc5c(c4)OCO5)CC3)c2c1` are 3400 nM and 220 nM.
On the same counts, the results for `Clc1ccc2c(c1)c(NC1CCN(Cc3ccc4c(c3)OCO4)CC1)nn2Cc1ccccn1` are 550 nM and 9 nM.
On to `COc1cccc(CN2CCC(Nc3[nH]nc4ccc(Cl)cc34)CC2)c1`, for which the IC50 in data set [1] was found to be 4500 nM; in data set [2], 150 nM.
`Cc1ccc(CN2CCC(Nc3[nH]nc4ccc(Cl)cc34)CC2)cc1C`: the IC50 turned out to be 1380 nM in data set [1] and 100 nM in data set [2].
In the same order, the values of `Clc1ccc2[nH]nc(NC3CCN(Cc4ccc5nsnc5c4)CC3)c2c1` are 4910 nM and 50 nM.
On to `Clc1ccc2[nH]nc(NC3CCN(Cc4ccccc4)CC3)c2c1`, for which the IC50 in data set [1] was greater than 10000 nM; in data set [2], 850 nM.
For the molecule `Clc1ccc2c(c1)c(NC1CCN(Cc3ccc4c(c3)OCO4)CC1)nn2Cc1cccnc1`, the half-life was 4.7 h in data set [3] and 6 h in data set [4]. In addition, the AUC was 5340 ng·h/mL in data set [5] and 11900 ng·h/mL in data set [8]. For the same molecule, the IC50 was determined as 290 nM in data set [1] and 20 nM in data set [2]. Further, the Cmax in data set [6] was determined as 758 ng/mL; in data set [7], 1690 ng/mL.
Regarding `Clc1ccc2[nH]nc(NC3CCN(Cc4ccc5c(c4)OCCO5)CC3)c2c1`, the IC50 in data set [1] was 1890 nM; in data set [2] it was 70 nM.
As for `COc1cccc2[nH]nc(NC3CCN(Cc4ccc5c(c4)OCO5)CC3)c12`, the IC50 in data set [1] is greater than 10000 nM; in data set [2] it was 330 nM.
Consider `COc1ccc2[nH]nc(NC3CCN(Cc4ccc5c[nH]nc5c4)CC3)c2c1`, for which the IC50 in data set [1] worked out at 380 nM; in data set [2], 50 nM.
`O=C(c1cscn1)n1nc(NC2CCN(Cc3ccc4c(c3)OCO4)CC2)c2cc(Cl)ccc21` had a half-life in data set [3] of 1 h. Further, the figures for the IC50 in data set [1] and in data set [2] were 2540 nM and 20 nM, respectively. For the same molecule, in data set [7], the peak level (Cmax) was 271 ng/mL. This molecule came in with an AUC in data set [8] of 400 ng·h/mL.
In the case of `O=C(C1CC1)n1nc(NC2CCN(Cc3ccc4c(c3)OCO4)CC2)c2cc(Cl)ccc21`, the figures for the IC50 in data set [1] and in data set [2] were greater than 10000 nM and 40 nM, respectively.
In the same order, the values of `Clc1ccc2c(c1)c(NC1CCN(Cc3ccc4c(c3)OCO4)CC1)nn2Cc1ccncc1` are 560 nM and 7 nM.
On the same counts, the results for `COc1ccc2c(c1)c(NC1CCN(Cc3ccc4c(c3)OCO4)CC1)nn2C` are 190 nM and 30 nM.
On the same counts, the results for `O=C(CN1CCOCC1)n1nc(NC2CCN(Cc3ccc4c(c3)OCO4)CC2)c2cc(Cl)ccc21` are 1140 nM and 20 nM.
In the case of `O=C(c1cccnc1)n1nc(NC2CCN(Cc3ccc4c(c3)OCO4)CC2)c2cc(Cl)ccc21`, in data set [3], the half-life is 2.3 h. Also, the IC50 in data set [1] is 930 nM; in data set [2], 20 nM. This molecule came in with a Cmax in data set [7] of 63 ng/mL. The molecule further had an exposure (AUC) in data set [8] of 164 ng·h/mL.
With `Clc1ccc(CN2CCC(Nc3[nH]nc4ccc(Cl)cc34)CC2)cc1`, the IC50 worked out at 6200 nM in data set [1] and 200 nM in data set [2].
For `Clc1ccc2c(c1)c(NC1CCN(Cc3ccc4c(c3)OCO4)CC1)nn2-c1ccccc1`, the figures for the IC50 in data set [1] and in data set [2] were greater than 10000 nM and 50 nM, respectively.
On to `Clc1ccc2c(c1)c(NC1CCN(Cc3ccc4c(c3)OCO4)CC1)nn2Cc1ccccc1`, for which the IC50 was 5230 nM in data set [1] and 40 nM in data set [2].
For the molecule `COc1ccc2[nH]nc(NC3CCN(Cc4ccc5c(c4)OCO5)CC3)c2c1`, the half-life is 3.9 h in data set [3] and 4.9 h in data set [4]. In addition, the AUC in data set [5] amounted to 28500 ng·h/mL; in data set [8], 7630 ng·h/mL. Further, the IC50 in data set [1] was 60 nM; in data set [2] it was 8 nM. Besides, the Cmax in data set [6] was determined as 6040 ng/mL; in data set [7], 1410 ng/mL.
Regarding `Clc1ccc2c(c1)c(NC1CCN(Cc3ccc4ccccc4c3)CC1)nn2Cc1ccccn1`, the values for the IC50 in data set [1] and in data set [2] were 640 nM and 20 nM, respectively.
For `Clc1ccc2[nH]nc(NC3CCN(Cc4ccc5ccccc5c4)CC3)c2c1`, the IC50 amounted to 1820 nM in data set [1] and 40 nM in data set [2].
On the same counts, the results for `O=[N+]([O-])c1ccc2[nH]nc(NC3CCN(Cc4ccc5c(c4)OCCO5)CC3)c2c1` are 520 nM and 30 nM.
In the same order, the values of `FC(F)(F)c1ccc2[nH]nc(NC3CCN(Cc4ccc5c(c4)OCO5)CC3)c2c1` are greater than 10000 nM and greater than 2000 nM.
Regarding `Clc1ccc2[nH]nc(NC3CCN(Cc4ccc5c(c4)OCO5)CC3)c2c1`, the figures for the half-life in data set [3] and in data set [4] were 3.1 h and 2.9 h, respectively. Further, the AUC in data set [5] turned out to be 59100 ng·h/mL; in data set [8], 8760 ng·h/mL. Besides, the figures for the IC50 in data set [1] and in data set [2] were 260 nM and 20 nM, respectively. In addition, the Cmax worked out at 12100 ng/mL in data set [6] and 1880 ng/mL in data set [7].
Turning to `O=[N+]([O-])c1ccc2c(c1)c(NC1CCN(Cc3ccc4c(c3)OCO4)CC1)nn2Cc1ccccc1`, the IC50 is 350 nM in data set [1] and 5 nM in data set [2].
